US4937246A, “PAF antagonist, 1,4-disubstituted piperazine compounds and production thereof” (priority 1987, dated 1990)
Where two headings read alike, the source gives them in different places.

Assays:
[1] = system: PAF-induced platelet aggregation; assay: Inhibitory action on PAF-induced platelet aggregation (turbidimetry, platelet rich plasma); format: cell-based, rabbit (New Zealand white); conditions: Oryctolagus cuniculus, Concentration of test compound: 3 × 10^-5 M
Procedure: Blood was collected from the hearts of conscious New Zealand white male rabbits weighing 2 to 3 Kg using citric acid as an anticoagulant (one volume part of 3.15% citric acid relative to 9 volume parts of the whole blood). The blood was subjected to a centrifuge at 800 rpm for 10 minutes to obtain platelet rich plasma (PRP). The remaining blood after collecting the PRP was subjected to a centrifuge at 3000 rpm for 10 minutes to obtain platelet poor plasma (PPP). PRP was diluted with PPP to adjust the number of platelets to about 500,000/μl. Platelet aggregation was examined by means of turbidimetry [Born, Nature, 194, 927-929 (1962)] with 8 channel aggregometer (NBS HEMA TRACER 6 Nikoh, Bio-science, Japan). More concretely, PRP (250μl) was kept warm (37° C.) for 3 minutes in a silicon-processed cuvette, to which was added a test sample (25μl) dissolved in a physiological saline or in 10mM dimethlsulfoxide followed by dilution with a physiological saline. Two minutes later, PAF (25μl, 3×10^-9 -1×10^-8 M), dissolved in a physiological saline, was added and then the maximum aggregation rate was determined. As the control, physiological saline without test sample was added to the cuvette, and the inhibitory rate thereon was determined.
Incidentally, Compound B means N,N'-bis(3,4,5-trimethoxybenzoyl)piperazine (a known compound).

PAF-induced hypotension = assay: Inhibitory action on PAF-induced hypotension (oral administration); format: in vivo, rat (SD (Jcl)); conditions: Rattus norvegicus; for inhibition in vivo at 30 mg/kg: 30 mg/kg oral; for inhibition in vivo at 3 mg/kg: 3 mg/kg oral; for inhibition in vivo at 10 mg/kg: 10 mg/kg oral
Procedure: SD (Jcl) male rats of 6 to 8 week old were applied with cannulation into the femoral artery and vein under anesthesia with pentobarbital. The animals were fasted overnight, then subjected to the experiment. A tansducer (MPU-0.5-290-0-III, TOYO BALDWIN, Japan) was connected with the artery cannula, and blood pressure was continuously measured by means of polygraph (San-ei, Japan). When the blood pressure became constant, PAF (0.5 to 1.0 μg/kg, 250 μl/kg) dissolved in a physiological saline was injected through the venous cannula to lower the blood pressures by 30 to 45 mmHg. Thirty minutes later, PAF was injected again, and the average of lowered values of blood pressure (twice) was used as the control. After restoration of blood pressure to the initial level, test samples prepared by dissolving or suspending the drug in a physiological saline suspension of gum arabic (5%) were orally administered (5 ml/kg), then, after 1, 2 and 4 hours, PAF was injected. The rate of inhibition of lowering of blood pressure after administration of the test samples against the control was evaluated.

Row | Compound | inhibition at 30 µM [1] [%] | inhibition in vivo at 30 mg/kg (PAF-induced hypotension; after 1 hr.) [%] | inhibition in vivo at 30 mg/kg (PAF-induced hypotension; after 2 hrs.) [%] | inhibition in vivo at 30 mg/kg (PAF-induced hypotension; after 4 hrs.) [%] | also measured
1 | COc1cc2c(cc1OC)OCCC(C(=O)N1CCN(C(=O)c3cc(OC)c(OC)c(OC)c3)CC1)C2 (centres unmarked) [compound 33] | 47 | 99 | 99 | 79 | 
2 | COc1cc(CN2CCN(C(=O)c3ccsc3)CC2)cc(OC)c1OC [compound 13] | 46 |  |  |  | 
3 | COc1cc(CN2CCN(C(=O)c3cnc4ccccc4c3)CC2)cc(OC)c1OC [compound 16] | 58 |  |  |  | 
4 | COc1cc2c(cc1OC)OCCC(C(=O)N1CCN(Cc3cc(OC)c(OC)c(OC)c3)CC1)=C2 [compound 25] | 100 | 100 | 97 | 70 | 
5 | COc1cc2c(cc1OC)OCCC(C(=O)N1CCN(C(=S)c3cc(OC)c(OC)c(OC)c3)CC1)=C2 [compound 29] |  | 100 | 100 | 100 | inhibition in vivo at 3 mg/kg (PAF-induced hypotension; after 1 hr.): 67%; inhibition in vivo at 3 mg/kg (PAF-induced hypotension; after 2 hrs.): 71%; inhibition in vivo at 3 mg/kg (PAF-induced hypotension; after 4 hrs.): 61%
6 | COc1cc2c(cc1OC)SCCC(C(=O)N1CCN(Cc3cc(OC)c(OC)c(OC)c3)CC1)=C2 [compound 23] | 74 | 94 | 94 | 67 | 
7 | COc1cc(CN2CCN(C(=O)C3CCc4sc5ccccc5c4C3O)CC2)cc(OC)c1OC (centres unmarked) [compound 19] | 64 |  |  |  | 
8 | COc1cc2c(cc1OC)SCCC(C(=O)N1CCN(C(=O)c3cc(OC)c(OC)c(OC)c3)CC1)=C2 [compound 24] | 100 | 94 | 91 | 78 | 
9 | COc1ccc(C(=O)N2CCN(Cc3cc(OC)c(OC)c(OC)c3)CC2)cc1OC [compound 4] |  | 64 | 32 | 22 | 
10 | CCCOc1c(OC)cc(C(=O)N2CCN(Cc3cc(OC)c(OC)c(OC)c3)CC2)cc1[N+](=O)[O-] [compound 3] | 100 | 86 | 63 | 26 | 
11 | COc1cc(CN2CCN(C(=O)c3ccc4c(c3)OCCO4)CC2)cc(OC)c1OC [compound 17] | 88 |  |  |  | 
12 | COc1cc(CN2CCN(C(=O)c3cc(OC)c(OC)c(OC)c3)CC2)cc(OC)c1OC [compound 2] | 100 |  |  |  | 
13 | COc1cc2c(cc1OC)OCCC(C(=O)N1CCN(C(=O)c3cc(OC)c(OC)c(OC)c3)CC1)=C2 [compound 26] | 100 | 98 | 99 | 100 | inhibition in vivo at 3 mg/kg (PAF-induced hypotension; after 1 hr.): 74%; inhibition in vivo at 3 mg/kg (PAF-induced hypotension; after 2 hrs.): 70%; inhibition in vivo at 3 mg/kg (PAF-induced hypotension; after 4 hrs.): 44%; inhibition in vivo at 10 mg/kg (PAF-induced hypotension; after 1 hr.): 100%; inhibition in vivo at 10 mg/kg (PAF-induced hypotension; after 2 hrs.): 100%; inhibition in vivo at 10 mg/kg (PAF-induced hypotension; after 4 hrs.): 87%
14 | COc1cc(CN2CCN(C(=O)c3cccnc3)CC2)cc(OC)c1OC [compound 8] | 63 |  |  |  | 
15 | COc1cc(C(=O)N2CCN(C(=O)c3cc(OC)c(OC)c(OC)c3)CC2)cc(OC)c1OC [Compound B, N,N'-bis(3,4,5-trimethoxybenzoyl)piperazine, reference compound] | 100 | 86 | 63 | 26 | LD50 (estimated) (rats; oral, rats, single dose): ~1000 mg/kg; survival (rats; rat, in vivo, po, 1000 mg/kg): all of the animals survived
16 | COc1cc(CN2CCN(C(=O)c3ccc4c(c3)C(O)C3(CC3)O4)CC2)cc(OC)c1OC (centres unmarked) [compound 22] | 100 | 94 | 80 | 2 | 
17 | COc1ccc2c(c1)OCCC(C(=O)N1CCN(C(=O)c3cc(OC)c(OC)c(OC)c3)CC1)=C2 [compound 28] |  | 92 | 91 | 92 | 
18 | COc1cc(CN2CCN(C(=O)c3cc4ccccc4o3)CC2)cc(OC)c1OC.Cl [Working Example 7, 1-(2-benzofuranylcarbonyl)4-(3,4,5-trimethoxybenzyl)piperazine hydrochloride] |  |  |  |  | survival (rats; single oral dose 1000 mg/kg, rats, one week observation): all of the animals survived
19 | COc1ccc2c3c(oc2c1)CCC(C(=O)N1CCN(Cc2cc(OC)c(OC)c(OC)c2)CC1)=C3 [compound 18] | 84 |  |  |  | 
20 | CCCCOc1c(OC)cc(C(=O)N2CCN(C(=O)c3cc(OC)c(OC)c(OC)c3)CC2)cc1[N+](=O)[O-] [compound 5] |  | 91 | 93 | 88 | 
21 | COc1cc(CN2CCN(C(=O)c3nc4ccccc4s3)CC2)cc(OC)c1OC [compound 9] | 52 |  |  |  | 
22 | COc1ccc2c(c1)C=C(C(=O)N1CCN(C(=O)c3cc(OC)c(OC)c(OC)c3)CC1)CCO2 [compound 27] |  | 100 | 100 | 86 | inhibition in vivo at 10 mg/kg (PAF-induced hypotension; after 1 hr.): 79%; inhibition in vivo at 10 mg/kg (PAF-induced hypotension; after 2 hrs.): 75%; inhibition in vivo at 10 mg/kg (PAF-induced hypotension; after 4 hrs.): 62%
23 | COc1cc(CN2CCN(C(=O)c3cc4ccccc4o3)CC2)cc(OC)c1OC [compound 7] | 74 | 4 | 15 | 25 | 
24 | COc1cc(CN2CCN(C(=O)C3=Cc4cc5c(cc4CC3)OCO5)CC2)cc(OC)c1OC [compound 6] | 93 |  |  |  | 
25 | COc1cc(CN2CCN(C(=O)c3cc4ccccc4oc3=O)CC2)cc(OC)c1OC [compound 12] | 78 | 65 | 40 | 24 | 
26 | COc1cc(CN2CCN(C(=O)c3ccc4c(c3)C(=O)C3(CC3)O4)CC2)cc(OC)c1OC [compound 21] | 100 |  |  |  | 
